# Assay results as given in patent publication US20060069132A1, “Azolecarboxamide herbicides” (priority 2004, published 2006).
# Tests used:
# barnyardgrass = test: Test B flooded paddy test; assay type: in vivo, Echinochloa crus-galli; conditions: 1000 g ai/ha, visual rating, scale 0 to 100 (0 no effect, 100 complete control), 13 to 15 days
# How it was run: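 Each value is a visual 0–100 response rating taken against controls 13 to 15 days after treatment in the greenhouse. Plants received formulated chemical postemergence at the 1- to 4-leaf stage or, in flooded paddy, at the 2-leaf stage.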
# woolly cupgrass = test: Test C pre-/postemergence herbicide test; assay type: in vivo, Eriochloa villosa; conditions: for Cupgrass, Woolly plant response rating: 500 g ai/ha
# How it was run: (§1)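 Visual injury scores run from 0 (no effect) to 100 (complete control), assessed relative to untreated controls 12 to 14 days after treatment in the greenhouse. Chemicals were formulated in a non-phytotoxic solvent mixture with surfactant and applied to soil after planting or to emerged plants at the 1- to 4-leaf stage.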
# cocklebur = test: Test B pre-/postemergence herbicide test; assay type: in vivo, Xanthium strumarium; conditions: for Cocklebur plant response rating: postemergence, visual rating
# How it was run: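 Evaluation is visual, comparing treated with control plants on a scale where 0 means no effect and 100 means full control. Treatments were preemergence, or postemergence on seedlings 2–18 cm tall, and held 13–15 days in the greenhouse.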
# rice = test: Test B pre-/postemergence herbicide test; assay type: in vivo, Oryza sativa; conditions: preemergence
# How it was run: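 Species tested were Echinochloa crus-galli, Ipomoea coccinea, Xanthium strumarium and Oryza sativa, treated both before emergence and at the 1- to 4-leaf stage; rice and barnyardgrass were also tested under flooding at 2 leaves. Greenhouse incubation lasted 13–15 days before visual 0–100 scoring.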
# yellow nutsedge = test: Test C pre-/postemergence herbicide test; assay type: in vivo, Cyperus esculentus; conditions: for Nutsedge, Yellow plant response rating: 500 g ai/ha
# How it was run: as §1
# [1] = tested on: smallflower umbrella sedge; test: Test C flooded paddy test; assay type: in vivo, Cyperus difformis; conditions: for Plant response rating, Sedge, Umbrella: 500 g ai/ha, visual rating after 12 to 14 days
# common ragweed = test: Test C pre-/postemergence herbicide test; assay type: in vivo, Ambrosia elatior; set-up: key to Plant response rating, Ragweed: 0 = no effect, 100 = complete control; conditions: for Ragweed plant response rating: 500 g ai/ha
# How it was run: as §1
# goosegrass = test: Test C pre-/postemergence herbicide test; assay type: in vivo, Eleusine indica; conditions: for Goosegrass plant response rating: 500 g ai/ha
# How it was run: as §1
# velvetleaf = test: Test A pre-/postemergence herbicide test; assay type: in vivo, Abutilon theophrasti
# How it was run: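 Pre: seeded sandy loam, directed soil spray, compound in non-phytotoxic solvent + surfactant. Post: 1–2-leaf plants (2–10 cm), sprayed to runoff. Greenhouse ~10 d; visual injury vs untreated, 0–100 scale.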
# [2] = 125 g ai/ha, scale 0 (no effect) to 100 (complete control), visual, 12 to 14 days, preemergence
# [3] = 250 g ai/ha, scale 0 to 100 (0 no effect, 100 complete control), visual, 12 to 14 days, preemergence
# [4] = Postemergence, 250 g ai/ha, scale 0 to 100, 0 no effect, 100 complete control
# [5] = Preemergence, scale 0 to 100, 0 no effect, 100 complete control
# [6] = postemergence, 125 g ai/ha, scale 0 to 100
# [7] = postemergence, 62 g ai/ha, scale 0 to 100
# [8] = 500 g ai/ha, visual rating 0-100, 0 no effect, 100 complete control, preemergence
# [9] = 125 g ai/ha, scale 0 (no effect) to 100 (complete control)
# [10] = preemergence, 125 g ai/ha, 0 to 100 scale, 0 is no effect, 100 is complete control
# [11] = 62 g ai/ha, scale 0 to 100 (0 no effect, 100 complete control)
# [12] = 250 g ai/ha, scale of 0 to 100, 0 is no effect, 100 is complete control
# [13] = scale 0 to 100 (0 no effect, 100 complete control)
smiles,measurement,setting,value
CC(=NO)c1cccc(NC(=O)c2cc(C(C)(C)C)nn2CCF)c1 [Compound 115],Barnyardgrass plant response rating,barnyardgrass,90
same,"Plant response rating (0 = no effect, 100 = complete control), Cupgrass, Woolly","woolly cupgrass; 62 g ai/ha, preemergence",20
same,"Plant response rating, Cupgrass, Woolly",woolly cupgrass; [2],30
same,"Plant response rating, Cupgrass, Woolly",woolly cupgrass; [3],80
same,"Cupgrass, Woolly plant response rating","woolly cupgrass; Postemergence, scale 0 to 100",70
same,"Plant response rating, Cupgrass, Woolly",woolly cupgrass; [4],70
same,"Cupgrass, Woolly plant response rating",woolly cupgrass; [5],90
same,"Plant response rating, Cupgrass, Woolly",woolly cupgrass; [6],70
same,"Plant response rating, Cupgrass, Woolly",woolly cupgrass; [7],50
same,"Plant response rating, Cocklebur",cocklebur; [8],40
same,"Plant response rating, Cocklebur","cocklebur; Postemergence, 500 g ai/ha, visual rating after 13 to 15 days, scale 0 (no effect) to 100 (complete control)",90
same,Cocklebur plant response rating,cocklebur; [9],80
same,"Plant response rating, Cocklebur",cocklebur; [10],20
same,"Plant response rating, Rice","rice; 125 g ai/ha, 0 to 100 scale, 0 is no effect, 100 is complete control",0
same,"Plant response rating (0 = no effect, 100 = complete control), Nutsedge, Yellow","yellow nutsedge; 62 g ai/ha, preemergence",0
same,"Plant response rating, Nutsedge, Yellow",yellow nutsedge; [2],0
same,"Nutsedge, Yellow plant response rating","yellow nutsedge; Postemergence, scale 0 to 100",30
same,"Plant response rating, Nutsedge, Yellow",yellow nutsedge; [4],30
same,"Nutsedge, Yellow plant response rating",yellow nutsedge; [5],20
same,"Plant response rating, Nutsedge, Yellow",yellow nutsedge; [6],10
same,"Plant response rating, Nutsedge, Yellow",yellow nutsedge; [7],0
same,"Sedge, Umbrella plant response rating",[1]; [11],80
same,"Sedge, Umbrella plant response rating","[1]; 125 g ai/ha, scale of 0 to 100, 0 is no effect, 100 is complete control",85
same,"Sedge, Umbrella plant response rating",[1]; [12],90
same,"Plant response rating, Sedge, Umbrella",[1]; [13],95
same,"Plant response rating (0 = no effect, 100 = complete control), Ragweed","common ragweed; 62 g ai/ha, preemergence",70
same,"Plant response rating, Ragweed",common ragweed; [2],80
same,Ragweed plant response rating,"common ragweed; Postemergence, scale 0 to 100",90
same,"Plant response rating, Ragweed",common ragweed; [4],70
same,Ragweed plant response rating,common ragweed; [5],100
same,"Plant response rating, Ragweed",common ragweed; [6],70
same,"Plant response rating, Ragweed",common ragweed; [7],70
same,"Plant response rating (0 = no effect, 100 = complete control), Goosegrass","goosegrass; 62 g ai/ha, preemergence",70
same,"Plant response rating, Goosegrass",goosegrass; [2],80
same,Goosegrass plant response rating,"goosegrass; Postemergence, scale 0 to 100",70
same,"Plant response rating, Goosegrass",goosegrass; [4],70
same,Goosegrass plant response rating,goosegrass; [5],100
same,"Plant response rating, Goosegrass",goosegrass; [6],60
same,"Plant response rating, Goosegrass",goosegrass; [7],40
same,Velvetleaf plant response rating,"velvetleaf; Postemergence, 500 g ai/ha, 0 to 100 scale, 0 no effect, 100 complete control",40
same,"Plant response rating, Velvetleaf","velvetleaf; Postemergence, 2000 g ai/ha, 0 to 100 scale, 0 no effect, 100 complete control",40
same,Velvetleaf plant response rating,"velvetleaf; Preemergence, 500 g ai/ha, visual rating, 0 to 100 scale (0 no effect, 100 complete control)",85
same,Velvetleaf plant response rating,"velvetleaf; Preemergence, 2000 g ai/ha, visual rating, 0 to 100 scale (0 no effect, 100 complete control)",95
CCn1nc(C(C)(C)C)cc1C(=O)Nc1cccc(SC)c1 [Compound 131],Barnyardgrass plant response rating,barnyardgrass,70
same,"Plant response rating (0 = no effect, 100 = complete control), Cupgrass, Woolly","woolly cupgrass; 62 g ai/ha, preemergence",0
same,"Plant response rating, Cupgrass, Woolly",woolly cupgrass; [2],0
same,"Plant response rating, Cupgrass, Woolly",woolly cupgrass; [3],15
same,"Plant response rating, Cocklebur",cocklebur; [8],10
same,Cocklebur plant response rating,cocklebur; [9],70
same,Cocklebur plant response rating,"cocklebur; 500 g ai/ha, scale 0 (no effect) to 100 (complete control)",100
same,"Plant response rating, Cocklebur",cocklebur; [10],0
same,"Plant response rating, Rice","rice; 500 g ai/ha, visual rating 0-100, 0 no effect, 100 complete control",50
same,"Plant response rating, Nutsedge, Yellow","yellow nutsedge; 31 g ai/ha, scale 0 to 100, last section of Table C, preemergence",0
same,"Plant response rating (0 = no effect, 100 = complete control), Nutsedge, Yellow","yellow nutsedge; 62 g ai/ha, preemergence",0
same,"Plant response rating, Nutsedge, Yellow",yellow nutsedge; [2],0
same,"Sedge, Umbrella plant response rating",[1]; [11],55
same,"Sedge, Umbrella plant response rating","[1]; 125 g ai/ha, scale 0 to 100 (0 no effect, 100 complete control)",65
same,"Sedge, Umbrella plant response rating",[1]; [12],70
same,"Plant response rating, Sedge, Umbrella",[1]; [13],80
same,"Plant response rating (0 = no effect, 100 = complete control), Ragweed","common ragweed; 62 g ai/ha, preemergence",40
same,"Plant response rating, Ragweed",common ragweed; [2],50
same,"Plant response rating (0 = no effect, 100 = complete control), Goosegrass","goosegrass; 62 g ai/ha, preemergence",15
same,"Plant response rating, Goosegrass",goosegrass; [2],65
same,Velvetleaf plant response rating,"velvetleaf; Postemergence, 250 g ai/ha, 0 to 100 scale, 0 no effect, 100 complete control",15
same,"Plant response rating, Velvetleaf","velvetleaf; Postemergence, 1000 g ai/ha, 0 to 100 scale, 0 no effect, 100 complete control",10
same,Velvetleaf plant response rating,"velvetleaf; Preemergence, 1000 g ai/ha, visual rating, 0 to 100 scale (0 no effect, 100 complete control)",60
same,Velvetleaf plant response rating,"velvetleaf; preemergence, 250 g ai/ha, visual injury, 0 to 100 scale (0 no effect, 100 complete control)",10
